Results: patent publication US20160237052A1, “Histamine-3 Receptor Antagonists” (MediSynergics, LLC, priority 2015, published 2016)
Like-named read-outs stand apart in the source and are kept apart here.

Tests used:
SERT = SERT (Homo sapiens, UniProt P31645); experiment: Serotonin reuptake activity (SERT), PDSP; assay type: binding; details: for inhibition at 10 µM: 10 μM drug concentration; for Ki: calculated Ki
H3 = H3 (UniProt Q9Y5N1); experiment: Histamine H3 receptor binding (NIMH PDSP); details: H3 receptor subtype
Experimental: The compounds from the above Examples were tested for activity vs. histamine receptor subtypes (i.e., H1, H2, H3), at an initial concentration of 10 μM. Binding activity measurement was performed by the NIMH Psychoactive Drug Screening Program (PDSP) at the University of North Carolina Chapel Hill, N.C. The procedures employed by the PDSP are described in the NIMH PDSP Assay Protocol Book Version II (see, http://pdsp.med.unc.edu/PDSP %20Protocols %2011%202013-03-28.pdf). Data (e.g., H3antagonist activity) may also be generated using a commercially available kit from Invitrogen/Thermo Fisher Scientific Inc. (Tango™ H3-bla U2OS DA Assay Kit). Data for serotonin reuptake activity (SERT, % inhibition at 10 μM drug concentration; calculated Ki) were also generated by PDSP.

H1 = H1 (Homo sapiens, UniProt P35367); experiment: Histamine H1 receptor binding (NIMH PDSP); details: for inhibition at 10 µM: read-out: Inhibition (% at 10 μM)
Experimental: The compounds from the above Examples were tested for activity vs. histamine receptor subtypes (i.e., H1, H2, H3), at an initial concentration of 10 μM. Binding activity measurement was performed by the NIMH Psychoactive Drug Screening Program (PDSP) at the University of North Carolina Chapel Hill, N.C. […] Data (e.g., H3antagonist activity) may also be generated using a commercially available kit from Invitrogen/Thermo Fisher Scientific Inc. (Tango™ H3-bla U2OS DA Assay Kit).

H1, sequence (P35367 whole entry): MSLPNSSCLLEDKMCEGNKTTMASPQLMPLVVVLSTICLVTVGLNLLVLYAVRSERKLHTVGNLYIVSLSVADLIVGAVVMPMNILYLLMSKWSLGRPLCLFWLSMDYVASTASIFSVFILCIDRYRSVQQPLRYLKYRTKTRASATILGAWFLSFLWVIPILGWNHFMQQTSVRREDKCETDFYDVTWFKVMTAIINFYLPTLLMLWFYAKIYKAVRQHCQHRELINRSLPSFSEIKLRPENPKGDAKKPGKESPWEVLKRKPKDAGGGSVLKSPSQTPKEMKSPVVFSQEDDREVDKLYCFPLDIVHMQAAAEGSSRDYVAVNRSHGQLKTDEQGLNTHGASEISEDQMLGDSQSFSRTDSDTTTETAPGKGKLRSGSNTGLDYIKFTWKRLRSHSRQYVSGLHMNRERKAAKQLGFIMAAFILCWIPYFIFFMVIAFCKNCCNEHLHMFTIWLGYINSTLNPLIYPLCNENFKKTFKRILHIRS
SERT, sequence (P31645 whole entry, species assumed): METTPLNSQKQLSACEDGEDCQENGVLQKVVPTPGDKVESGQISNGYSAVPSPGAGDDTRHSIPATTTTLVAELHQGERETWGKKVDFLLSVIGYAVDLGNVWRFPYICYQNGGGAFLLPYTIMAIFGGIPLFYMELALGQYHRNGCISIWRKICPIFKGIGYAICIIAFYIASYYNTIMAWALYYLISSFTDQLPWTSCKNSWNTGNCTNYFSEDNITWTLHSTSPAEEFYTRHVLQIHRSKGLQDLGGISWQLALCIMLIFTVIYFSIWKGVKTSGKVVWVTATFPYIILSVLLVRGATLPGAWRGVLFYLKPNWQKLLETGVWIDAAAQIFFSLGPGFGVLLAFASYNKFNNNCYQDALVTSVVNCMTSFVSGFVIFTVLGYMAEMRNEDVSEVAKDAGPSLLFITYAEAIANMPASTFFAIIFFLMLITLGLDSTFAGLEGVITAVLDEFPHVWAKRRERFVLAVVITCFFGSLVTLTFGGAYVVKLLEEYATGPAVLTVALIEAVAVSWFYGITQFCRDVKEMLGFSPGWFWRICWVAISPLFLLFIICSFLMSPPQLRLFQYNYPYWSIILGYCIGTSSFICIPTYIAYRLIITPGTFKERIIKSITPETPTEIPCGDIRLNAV

Compound | inhibition at 10 µM (SERT) | Ki (SERT) | Ki (H3) | Inhibition (% at 10 μM) (H3) | Ki (H1) | inhibition at 10 µM (H1) | inhibition at 10 µM (H1; H1 receptor subtype, 10 μM) | Ki (H1; H1 receptor subtype, read-out: Ki)
CN(C)CCCC1(c2ccc(F)cc2)OCc2cc(CN3CCCCC3)ccc21 (stereo not drawn) [Example 1] | 98.8% | 0.029 µM | 0.02 µM | 99.6% | 0.101 µM | 89.9% |  | 
CN(C)CCCC1(c2ccc(F)cc2)OCc2cc(CN3CCN(C)CC3)ccc21 (stereo not drawn) [Example 2, 3-[5-((4-methylpiperazin-1-yl)methyl)-1-(4-fluorophenyl)-1,3-dihydro-2-benzofuran-1-yl]-N,N-dimethylpropan-1-amine] | 99.3% | 0.031 µM | 0.155 µM | 89.8% |  |  | 89.8% | 0.144 µM
